Patent US20250339542A1, “CONVERSION OF A BIOLOGICALLY SILENT MIRNA BINDING SMALL MOLECULE TO AN MIRNA DEGRADER” (University of Florida Research Foundation, Incorporated, priority 2020, published 2025)
Several values for one entry are separate records, joined by “and”; a condition that tells them apart may be missing. Identical values can stand only once. Entries after “also recorded” stand apart in the source; their conditions may differ.

Key:
miR-155 [1] = assay: RT-qPCR of mature miR-155 levels in MDA-MB-231 cells; type: cell-based, human; details: 48 h
Protocol: (§1) Tissue Culture. MDA-MB-231 cells were obtained from ATCC (HTB-26) and cultured in RPMI medium with […] & 25 mM HEPES (Corning) supplemented with 10% FBS (sigma). MCF-10a cells were obtained from ATCC(CRL-10317) and cultured in DMEM/F12 50/50 with glutamine and 15 mM HEPES(Corning) containing 20% FBS(Sigma), 1×Antibiotic-Antimycotic(Corning), 20 ng/mL of human epidermal growth factor(Pepro Tech Inc.), 100 μg/mL of insulin and […] of hydrocortisone (Pfizer &Bauer). HUVECs were cultured in EGM (Lonza) made using the EGM-2 bullet kit (Lonza) per the manufacturers protocol.
(§2) RT-qPCR analysis for Mature, Primary and Precursor miRNAs and mRNA levels. After compound treatment for the indicated time (MDA-MB-231 48 h and HUVECs 24 h), total RNA was extracted using the Zymo Quick-RNA mini prep kit according to the manufacturers protocol. Reverse Transcription (RT) for microRNAs and pri- and pre-miR-155 were done on 200 ng of RNA using the miScript II RT kit (Qiagen) according to the manufacturer's protocol. The mRNAs were done using QScript (Quanta Bio) on 200 ng of total RNA according to the manufacturer's protocol. RT-qPCR was done as mentioned above. The obtained data was analyzed by using the ΔΔCt method as described previously. For the washout experiment, MDA-MB-231 cells were treated with 3 for 48 h. Then the media was changed with fresh growth medium without compound and the cells incubated for 12, 24 and 36 h with RNA harvested and pre-miR-155 levels analyzed as described above.
(§3) RT-qPCR analysis for Mature, Primary and Precursor miRNAs and mRNA levels part. Relative RNA expression was determined by using ΔΔCt method with 18S rRNA as an internal control. Normalized fold change was calculated with the equation as below: […]

miR-155 [2] = assay: RT-qPCR of miR-155 levels in HUVECs; type: cell-based, human
Protocol: as §1, §2

RNase L / pre-miR-155 = target: T1, RNase L / pre-miR-155 (Homo sapiens, UniProt Q05823); assay: Immunoprecipitation of RNase L from MDA-MB-231 cells, RT-qPCR of pre-miR-155; type: cell-based; details: 100 nM, 48 h, relative to untreated
T1 construct: RNase L was immunoprecipitated from MDA-MB-231 cells; endogenous in cells; host or cells: MDA-MB-231
T1 sequence (Q05823 1-741): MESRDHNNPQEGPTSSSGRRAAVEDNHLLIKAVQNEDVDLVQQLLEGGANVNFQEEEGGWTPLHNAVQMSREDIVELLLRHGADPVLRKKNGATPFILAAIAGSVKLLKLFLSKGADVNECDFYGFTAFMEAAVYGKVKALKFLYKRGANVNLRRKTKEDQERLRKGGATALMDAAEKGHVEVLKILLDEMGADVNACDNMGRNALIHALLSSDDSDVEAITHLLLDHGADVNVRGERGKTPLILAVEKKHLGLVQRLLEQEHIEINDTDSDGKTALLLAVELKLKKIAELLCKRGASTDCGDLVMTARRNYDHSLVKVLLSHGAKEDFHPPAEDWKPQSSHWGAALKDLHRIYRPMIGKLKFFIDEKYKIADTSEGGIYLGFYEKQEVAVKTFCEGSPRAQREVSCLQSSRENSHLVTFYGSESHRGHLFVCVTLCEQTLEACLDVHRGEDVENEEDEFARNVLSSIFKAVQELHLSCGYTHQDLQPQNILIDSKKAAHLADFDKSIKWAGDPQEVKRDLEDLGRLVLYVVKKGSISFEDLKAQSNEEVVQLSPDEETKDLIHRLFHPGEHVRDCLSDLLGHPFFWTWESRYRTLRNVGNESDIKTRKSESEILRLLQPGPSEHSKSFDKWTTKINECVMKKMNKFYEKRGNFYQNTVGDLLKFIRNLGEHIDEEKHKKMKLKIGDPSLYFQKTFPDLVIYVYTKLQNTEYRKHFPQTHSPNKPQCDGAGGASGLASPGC
Protocol: Immunoprecipitation of RNase L. RNase L immunoprecipitation is performed according to published procedures.^16 Briefly, at […], MDA-MB-231 cells were treated with vehicle, 100 nM of 3 or 5 for 48 h. Cells were then washed with DPBS, and detached by scraper. The collected cells were lysed in 100 L of M-PER buffer(78503, Thermo Fisher) containing 1× Protease Inhibitor Cocktail III for Mammalian Cells (Research Products International Corp.) and 80 U of RNaseOUT Recombinant Ribonuclease Inhibitor (Invitrogen) per the manufacture's protocol. The samples were centrifuged at 13,000×g at 4° C. Protein concentration was determined by using a Pierce Mico BCA Protein Assay kit (Fisher Scientific). Approximately 200 g of the total protein per sample was incubated at 4° C. overnight with Dynabeads Protein A (Life Technologies) bound to either RNase L mouse primary antibody (Santa Cruz Biotechnology: sc-74405) or j-actin mouse primary antibody (Cell signaling: 8H10D10). Beads were then washed with 1× DPBST (1× DPBS supplemented with 0.02% Tween-20) for 3 times, after which RNA was extracted by using a miRNeasy Mini Kit (Qiagen) per the manufacturer's instructions. RT-qPCR was performed the same as mentioned above.

pre-miR-155 [3] = assay: RT-qPCR of pre-miR-155 levels in HUVECs; type: cell-based, human
Protocol: as §1, §2

pri-miR-155 = assay: RT-qPCR of pri-miR-155 levels in MDA-MB-231 cells; type: cell-based, human
Protocol: as §1
RT-qPCR analysis for Mature, Primary and Precursor miRNAs and mRNA levels. After compound treatment for the indicated time (MDA-MB-231 48 h and HUVECs 24 h), total RNA was extracted using the Zymo Quick-RNA mini prep kit according to the manufacturers protocol. […] The obtained data was analyzed by using the ΔΔCt method as described previously. […] Then the media was changed with fresh growth medium without compound and the cells incubated for 12, 24 and 36 h with RNA harvested and pre-miR-155 levels analyzed as described above.
as §3

SOCS1 = assay: Western blot of SOCS1 in MDA-MB-231 cells; type: cell-based, human
Protocol: Western-Blotting. MDA-MB-231 cells were plated in 6 well plates at 150,000 cells/well. And at 50% confluency, cells were treated with Vehicle or 155-ribotac for 48 h. Then the medium was removed and washed with 1× DPBS. The cells were trypsinized and pelleted. The pellets were washed twice with 1× DPBS and then lysed in 50 L of M-PER (Thermo Fisher) buffer with 1× protease inhibitor cocktail (Roche) on ice for 20 min. The lysate was centrifuged at 4° C. for 15 min and the supernatants were collected. Protein concentration were determined using a Pierce Mico BCA Protein Assay kit (Fisher Scientific) according to the manufacturer's protocol. Approximately 20 g of total protein for each sample was resolved on a 10% SDS-polyacrylamide gel and the protein were then transferred to a PVDF membrane. […] After washing with 1× TBST for 15 min for 3 times, SOCS1 protein expression was detected by using SuperSignal West Pico Chemiluminescent Substrate (Pierce Biotechnology).
The membrane was then stripped by Stripping Buffer (200 mM glycine with 0.1% SDS, pH 2.2) for 90 min at RT and then the membrane was washed with 1× TBST for 10 min for 3 times. […] The membrane was then washed with 1× TBST for 10 min for 3 times and j-actin expression level was detected. ImageJ software was used to quantify the protein bands.

HUVECs = assay: Angiogenesis: tubule network formation of HUVECs on Matrigel; type: cell-based, human
Protocol: Lastly, compound 3's (Formula I) effect on VHL protein and angiogenesis in HUVECs was studied. […] Since upregulation of VHL should attenuate the angiogenic capacity of HUVECs, their ability to differentiate into tubule networks on Matrigel as previously described was measured.^24 Treatment with compound 3, caused a decrease of 29% (100 vs. 140 branch points) in tubule branching for differentiated HUVECs. Although small, this decrease does correspond with suppression of miR-155 and de-repression of VHL, which is in line with the initial study by Kong et al. who observed a 42% reduction in branching points (FIG. 21I).^38 Taken together compound 3 degrades miR-155 in HUVECs with low nanomolar activity and is able to attenuate their angiogenic capacity.

MCF-10a cells = assay: Migration assay of transfected MCF-10a cells; type: cell-based; details: mock transfected MCF-10a cells
Protocol: Lastly, the dependence of migration on miR-155 and the activity of 3 on the presence of the 5′GAU/3′C_A bulge was assessed. MCF-10a cells, a model of healthy breast epithelium, were transfected with wild type pre-miR-155 and mutant pre-miR-155, where the 5′GAU/3′C_A bulge is mutated to an AU base pair. […] Treatment with 3 reduced migration of MCF-10a cells transfected with WT pre-miR-155 by 60%, in contrast to mutant miR-155 expressing cells in which the compound's binding site has been ablated, the migration of which was unaffected by 3 treatment.
Migration Assay: The Migration assay was performed the same as previous publication^15. Briefly, MDA-MB-231 cells were serum starved for 12 h in RPMI medium without FBS. Then, samples of 50,000 cells treated with vehicle or 155-Ribotac in serum starved medium were seeded into Hanging cell culture Inserts with 8.0 µm pores for 24 well plate with complete growth medium in the bottom well. After 20 h, the medium was aspirated and the inserts and the bottom wells were washed with DPBS twice. Then to the bottom well were added 400 µL of 4% paraformaldehyde. After fixing for 20 min. The inserts and wells were washed with DPBS twice and then treated with 400 µL of 0.1% crystal violet solution. After 20 min, the wells and inserts were washed with water twice and PBS once. Cotton swabs were used to remove the cells inside the inserts. […]

MDA-MB-231 cells = assay: Migration assay of MDA-MB-231 cells; type: cell-based; details: Homo sapiens, compound 3 at 1×10^−7 M, read-out: inhibition of cellular migration
Protocol: Migration Assay: The Migration assay was performed the same as previous publication^15. Briefly, MDA-MB-231 cells were serum starved for 12 h in RPMI medium without FBS. Then, samples of 50,000 cells treated with vehicle or 155-Ribotac in serum starved medium were seeded into Hanging cell culture Inserts with 8.0 µm pores for 24 well plate with complete growth medium in the bottom well. After 20 h, the medium was aspirated and the inserts and the bottom wells were washed with DPBS twice. Then to the bottom well were added 400 µL of 4% paraformaldehyde. After fixing for 20 min. The inserts and wells were washed with DPBS twice and then treated with 400 µL of 0.1% crystal violet solution. After 20 min, the wells and inserts were washed with water twice and PBS once. Cotton swabs were used to remove the cells inside the inserts. Migration inserts were completely air-dried and imaged by using a Leica DMI3000 B upright fluorescent microscope.

pre-miR-155 [4] = assay: RT-qPCR of pre-miR-155 levels in MDA-MB-231 cells; type: cell-based, human
Protocol: as §1, §2, §3

Von-Hippel Lindau (VHL) = assay: Western blot of VHL in HUVECs; type: cell-based, human
[5] = tested on: RNA isoforms of miR-155 that contain the 5′GAU/3′C_A binding site; assay: RT-qPCR of RNA isoforms of miR-155 (same binding site) in MDA-MB-231 cells; type: cell-based, human; details: 48 h
Protocol: Next, the selectivity of 3 to inhibit miR-155 out of 373 expressed miRNAs in MDA-MB-231 cell was assessed. […] A comparison of their structures to the aforementioned list of miRNAs with potential RIBOTAC sites identified that all except pre-miR-101-1 and pre-let-7g have a RIBOTAC targetable motif.
as §2

enrichment of pre-miR-155 in RNase L pulldown fractions (RNase L / pre-miR-155) | SMILES | effect on miR-155 levels / miR-155 biogenesis (miR-155 [1]) | effect on miR-155 levels (miR-155 [2]) | effect on pre-miR-155 levels (pre-miR-155 [3]) | degradation of the primary transcript (pri-miR-155) (pri-miR-155) [%] | lowest concentration showing reduction of miR-155 levels (miR-155 [2]) [nM] | inhibition at 0.001 µM (miR-155 [2]; Homo sapiens, HUVEC, 1×10^−9 M) [%] | de-repression of SOCS1 (SOCS1) [%] | upregulation of SOCS1 (SOCS1) [fold] | inhibition of angiogenic capacity / decrease in tubule branching (HUVECs; differentiated HUVECs on Matrigel) | branch points (HUVECs; differentiated HUVECs, treated (vs. 140 untreated)) | effect on migration (MCF-10a cells) | lowest concentration showing cleavage of pre-miR-155 (pre-miR-155 [3]) [nM] | inhibition at 0.001 µM (pre-miR-155 [3]; Homo sapiens, HUVEC, 1×10^−9 M) [%] | inhibition at 0.1 µM (MDA-MB-231 cells) [%] | degradation of pre-miR-155 (pre-miR-155 [4]; MDA-MB-231 cells, 1×10^−7 M, 48 h) [%] | degradation of pre-miR-155 (pre-miR-155 [4]; MDA-MD-231 and/or HUVEC cells, 0.1 micromolar, summary) [%] | de-repression of VHL (Von-Hippel Lindau (VHL); 10 nM) [%] | de-repression of VHL (Von-Hippel Lindau (VHL); 1×10^−7 M) [fold] | effect on RNA isoforms of miR-155 [5]
no enrichment | CCOC(=O)C1=C(Nc2ccccc2)S/C(=C\c2ccc(O)c(OCCOCCOCCOCCNC(=O)CCc3c(C)n(-c4c(C(C)C)cccc4C(C)C)c[n+]3-c3c(C(C)C)cccc3C(C)C)c2)C1=O [Compound 5] | no effect; also recorded: does not inhibit | no effect | no effect |  |  |  |  |  |  |  |  |  |  |  |  |  |  |  | 
 | CCOC(=O)C1=C(Nc2ccccc2)S/C(=C\c2ccc(OCCOCCOCCOCCNC(=O)CCc3c(C)n(-c4c(C(C)C)cccc4C(C)C)c[n+]3-c3c(C(C)C)cccc3C(C)C)c(O)c2)C1=O [Compound 3] |  |  |  | 43 | ≤ 1 | 50 | 50 | 1.6 | 20% and 29% | 100 | inactive | ≤ 1 | 50 | 50 | 60 | ≥ 60 | 50 | 1.5 | no effect
